Assay: xn = mol fraction of the nth substance listed
Conditions: Liquid

C=C(C)C(=O)OC [methyl methacrylate] + CCCCn1cc[n+](C)c1.F[P-](F)(F)(F)(F)F
Conditions | mass density [kg/m3] | viscosity [mPa·s]
283.15 K, x1 = 0.0986 | 1360.73 | 434.9
283.15 K, x1 = 0.2094 | 1335.27 | 218.03
283.15 K, x1 = 0.3073 | 1310.42 | 118.57
283.15 K, x1 = 0.4053 | 1282.19 | 64.04
283.15 K, x1 = 0.4977 | 1250.45 | 34.64
283.15 K, x1 = 0.5993 | 1211.21 | 17.78
283.15 K, x1 = 0.7009 | 1164.35 | 8.859
283.15 K, x1 = 0.8003 | 1109.1 | 3.909
283.15 K, x1 = 0.9007 | 1042.12 | 1.719
283.15 K, x1 = 1 | 954.802 | 0.6808
288.15 K, x1 = 0.0986 | 1356.38 | 308.34
288.15 K, x1 = 0.2094 | 1330.98 | 161.21
288.15 K, x1 = 0.3073 | 1306.05 | 91.29
288.15 K, x1 = 0.4053 | 1277.72 | 50.28
288.15 K, x1 = 0.4977 | 1245.87 | 28.16
288.15 K, x1 = 0.5993 | 1206.49 | 14.99
288.15 K, x1 = 0.7009 | 1159.46 | 7.717
288.15 K, x1 = 0.8003 | 1103.97 | 3.485
288.15 K, x1 = 0.9007 | 1036.71 | 1.575
288.15 K, x1 = 1 | 949.097 | 0.6337
293.15 K, x1 = 0.0986 | 1352.04 | 224.88
293.15 K, x1 = 0.2094 | 1326.72 | 122.32
293.15 K, x1 = 0.3073 | 1301.68 | 71.8
293.15 K, x1 = 0.4053 | 1273.26 | 40.3
293.15 K, x1 = 0.4977 | 1241.3 | 23.27
293.15 K, x1 = 0.5993 | 1201.58 | 12.81
293.15 K, x1 = 0.7009 | 1154.07 | 6.781
293.15 K, x1 = 0.8003 | 1098.45 | 3.136
293.15 K, x1 = 0.9007 | 1031.1 | 1.45
293.15 K, x1 = 1 | 943.365 | 0.5899
298.15 K, x1 = 0.0986 | 1347.84 | 168.14
298.15 K, x1 = 0.2094 | 1322.45 | 94.88
298.15 K, x1 = 0.3073 | 1297.32 | 55.22
298.15 K, x1 = 0.4053 | 1268.81 | 32.87
298.15 K, x1 = 0.4977 | 1236.75 | 19.54
298.15 K, x1 = 0.5993 | 1197.09 | 11.07
298.15 K, x1 = 0.7009 | 1149.69 | 6.014
298.15 K, x1 = 0.8003 | 1093.72 | 2.836
298.15 K, x1 = 0.9007 | 1025.87 | 1.342
298.15 K, x1 = 1 | 937.615 | 0.554
303.15 K, x1 = 0.0986 | 1343.67 | 128.46
303.15 K, x1 = 0.2094 | 1318.17 | 75.44
303.15 K, x1 = 0.3073 | 1292.97 | 44.49
303.15 K, x1 = 0.4053 | 1264.37 | 27.22
303.15 K, x1 = 0.4977 | 1232.2 | 16.62
303.15 K, x1 = 0.5993 | 1192.4 | 9.662
303.15 K, x1 = 0.7009 | 1144.81 | 5.374
303.15 K, x1 = 0.8003 | 1088.59 | 2.583
303.15 K, x1 = 0.9007 | 1020.43 | 1.247
303.15 K, x1 = 1 | 931.837 | 0.5248
308.15 K, x1 = 0.0986 | 1339.49 | 100.54
308.15 K, x1 = 0.2094 | 1313.91 | 58.33
308.15 K, x1 = 0.3073 | 1288.62 | 36.45
308.15 K, x1 = 0.4053 | 1259.94 | 22.86
308.15 K, x1 = 0.4977 | 1227.67 | 14.29
308.15 K, x1 = 0.5993 | 1187.73 | 8.505
308.15 K, x1 = 0.7009 | 1139.93 | 4.838
308.15 K, x1 = 0.8003 | 1083.46 | 2.369
308.15 K, x1 = 0.9007 | 1014.97 | 1.165
308.15 K, x1 = 1 | 926.032 | 0.4956
313.15 K, x1 = 0.0986 | 1335.32 | 80.4
313.15 K, x1 = 0.2094 | 1309.66 | 47.27
313.15 K, x1 = 0.3073 | 1284.28 | 30.27
313.15 K, x1 = 0.4053 | 1255.53 | 19.43
313.15 K, x1 = 0.4977 | 1223.15 | 12.43

Source: the NIST ThermoML archive (doi:10.1021/je900091b)
